Measurements from PMC6197257 (Scientific Reports, 2018).

Experiments:
[1] = system: anti-3MGA MAb; test: competitive ELISA cross-reactivity of anti-3MGA MAb; format: binding, mouse; settings: CR = IC50 for 3MGA / IC50 for compound x 100, 3MGA calibrated as 100%
Procedure: To activate the hapten 3MGA for the preparation of anti-3MGA MAb, the 3MGA-KLH conjugate was synthesized by using a model based on the carbodiimide method with both EDC and NHS reagents. 3MGA-HSA was also prepared using the same method, and was used for ELISA. We also evaluated the hapten number of the 3MGA-HSA conjugate by MALDI-TOF MS analysis. […] The MAb was developed by using the same methods described in our previous study. Hybridomas secreting antibodies recognizing 3MGA were selected by ELISA and then subcloned 4 times by the limited dilution method. […] The heavy chain of the obtained MAb was classified using a Calbiochem mouse hybridoma subisotyping kit (EMD Biosciences, Darmstadt, Germany), whereas the light chain was estimated using an IsoQuick^TM mouse monoclonal isotyping strip (Sigma) according to the manufacturer’s instructions.
3MGA-HSA (1 µg/ml in 50 mM carbonate buffer, pH 9.6) was added into a 96-well plate (Nagel Nunc, Penfield, NY, USA) (100 µl/well), and incubated at 37 °C for 1 h. After the removal of 3MGA-HSA, the wells were washed with 200 µl/well PBS containing 0.05% Tween 20 (T-PBS) for 3 times. The wells were incubated with 300 µl/well of 5% skim milk (Morinaga-milk, Tokyo, Japan) at 4 °C overnight. […] After the wells were washed with T-PBS 3 times, HRP-labeled goat anti-mouse IgG (Fc specific) antibody (1:1,000 dilution with T-PBS) was added into the wells (100 µl/well), and the plate was incubated at 37 °C for 1 h. Next, the wells were washed with T-PBS 3 times, the substrate solution (0.006% H2O2 in 200 mM citrate buffer, pH 4.0/H2O/0.6 mg/ml ABTS 10:9:1) was added into the wells (100 µl/well), and incubated at room temperature for 15 min.

[2] = system: CYP3A4; design: method as in PMID 26712778, PMID 22943175; settings: competitive inhibitor; cited from earlier work
[3] = pharmacokinetics in EHBRs orally treated with GA (200 mg/kg), LC-MS/MS; format: in vivo, Eisai Hyperbilirubinemia rats (EHBRs); settings: Eisai Hyperbilirubinemia rats (EHBR), rat, plasma; female EHBRs, GA 200 mg/kg oral, 12 h; read-out: plasma concentration 12 h after GA treatment
Procedure: Female SD rats or EHBRs (9-week-old) were anesthetized by an intraperitoneal (i.p.) injection of urethane (1 g/kg) and their jugular veins were exposed. […] Aliquots (10 µl) of plasma or urine were mixed with 20 µl of subtilisin (0.91 U/ml), incubated at 37 °C for 30 min, followed by the addition of 70 µl of astragalloside IV solution (1 µg/ml in ethanol containing 0.5% formic acid), and kept at −20 °C for 30 min.

[4] = system: rat kidney slices; test: uptake by rat kidney slices; format: in vitro ADME; settings: pooled plasma of female EHBRs, pH 5.5, 2 h
Procedure: Female SD rats (9-week-old) were treated with urethane (1 g/kg, i.p.), and their kidneys were collected. After removal of the capsule, the kidneys were sliced at approximately 0.5-mm thickness in the frontal section of the organ, using a tissue slicer (Natsume Seisakusyo, Tokyo, Japan) and then cut at the renal hilus into two halves. The slices were pre-incubated at either 4 or 37 °C for 15 min in 24-well plates with 0.3 ml of the incubation medium (137 mM NaCl, 5.4 mM KCl, 0.95 mM CaCl2, 0.81 mM MgSO4, 0.44 mM KH2PO4, 0.25 mM Na2HPO4, 5.5 mM glucose, 10 mM MES, adjusted to pH 5.5). Five ml of pooled female EHBR plasma samples was lyophilized, and dissolved in 5 ml of the incubation medium. […] After washing with PBS three times, the kidney slices were homogenated in PBS using sonication, and the concentrations of protein were measured as mentioned above. […]
LC-ESI(+)MS/MS analysis was conducted at the following conditions: column, Scherzo SM-C18 (3 μm, 3 mm i.d. ×100 mm, Imtakt, Kyoto, Japan); mobile phase, (A) 5 mM AcNH4, (B) 125 mM AcNH4/acetonitrole 1:4, at a flow rate of 0.3 ml/min, with the following gradient profile: A:B = 50:50–0:100 (0–3 min) and 0:100 (3–10 min); compound 1 (5.8 min), astragaloside IV (3.0 min), GA (8.7 min); the transitions monitored were the same as described in the previous section. […]

[5] = concentrations in pooled plasma of EHBRs 12 h after oral GA (200 mg/kg); format: in vivo; settings: Eisai Hyperbilirubinemia rats (EHBR), rat
Procedure: Three female and three male EHBRs (9-week-old, respectively) were injected with urethane (1 g/kg, i.p.), and orally treated with an aqueous GA aqueous suspension (200 mg/kg in 1% CMC). Twelve h after the treatment, blood was collected from the abdominal vena cava, and the plasma samples of each sex rat were pooled.
LC-ESI(+)MS/MS analysis was conducted at the following conditions: column, Scherzo SM-C18 (3 μm, 3 mm i.d. ×100 mm, Imtakt, Kyoto, Japan); mobile phase, (A) 5 mM AcNH4, (B) 125 mM AcNH4/acetonitrole 1:4, at a flow rate of 0.3 ml/min, with the following gradient profile: A:B = 50:50–0:100 (0–3 min) and 0:100 (3–10 min); compound 1 (5.8 min), astragaloside IV (3.0 min), GA (8.7 min); the transitions monitored were the same as described in the previous section. Linear regressions over the concentration range 0.08–2 µM for compound 1 and 3.2 nM–2 µM for GA were examined using the peak-area ratio of the compounds to their internal standards and the least-squares method (r^2 > 0.98).

[6] = system: CYP2C19; design: method as in PMID 26712778, PMID 22943175; settings: competitive inhibitor; cited from earlier work
[7] = system: CYP2C9; design: method as in PMID 26712778, PMID 22943175; settings: competitive inhibitor; cited from earlier work

Structure (SMILES)	cross-reactivity of anti-3MGA MAb [1]	also measured
CC(C)=CCC[C@](C)(O[C@@H]1O[C@H](CO[C@@H]2O[C@H](CO)[C@@H](O)[C@H](O)[C@H]2O)[C@@H](O)[C@H](O)[C@H]1O)[C@H]1CC[C@]2(C)[C@@H]1[C@H](O)C[C@@H]1[C@@]3(C)CC[C@H](O[C@@H]4O[C@H](CO)[C@@H](O)[C@H](O)[C@H]4O[C@@H]4O[C@H](CO)[C@@H](O)[C@H](O)[C@H]4O)C(C)(C)[C@@H]3CC[C@]12C [ginsenoside Rb1]	less than 0.02%	–
C[C@@]12C[C@@]3(O)O[C@@H](O1)[C@]1(COC(=O)c4ccccc4)[C@H]3C[C@@]12O[C@@H]1O[C@H](CO)[C@@H](O)[C@H](O)[C@H]1O [paeoniflorin]	less than 0.02%	–
C[C@]1(C(=O)O)CC[C@]2(C)CC[C@]3(C)C(=CC(=O)[C@@H]4[C@@]5(C)CC[C@H](O[C@@H]6O[C@H](C(=O)O)[C@@H](O)[C@H](O)[C@H]6O[C@@H]6O[C@H](C(=O)O)[C@@H](O)[C@H](O)[C@H]6O)[C@](C)(CO)[C@@H]5CC[C@]43C)[C@@H]2C1 [licorice saponin G2]	less than 0.02%	–
CC1(C)[C@@H](O[C@H]2O[C@H](C(=O)O)[C@@H](O)[C@H](O)[C@H]2O[C@@H]2O[C@H](C(=O)O)[C@@H](O)[C@H](O)[C@H]2O)CC[C@]2(C)[C@H]3C(=O)C=C4[C@@H]5C[C@@](C)(C(=O)O)CC[C@]5(C)CC[C@@]4(C)[C@]3(C)CC[C@@H]12 [GL, glycyrrhizin]	0.22%	–
C[C@H]1O[C@@H](O[C@H]2CC[C@@]3(C)[C@@H](CC[C@]4(C)[C@@H]3C=C[C@]35OC[C@@]6(CCC(C)(C)C[C@H]63)[C@@H](O)C[C@]54C)[C@]2(C)CO)[C@H](O)[C@@H](O[C@@H]2O[C@H](CO)[C@@H](O)[C@H](O)[C@H]2O)[C@H]1O [saikosaponin a]	less than 0.02%	–
CC1(C)[C@@H](O)CC[C@]2(C)[C@H]3C(=O)C=C4[C@@H]5C[C@@](C)(C(=O)O)CC[C@]5(C)CC[C@@]4(C)[C@]3(C)CC[C@@H]12 [GA, 18β-glycyrrhetinic acid]	1.04%	IC50 [2]: 8.2 to 14 µM; concentration at 12 h [3]: 5.9 µM; uptake by kidney slices at 37 °C compared with 4 °C [4]: similar; concentration at 12 h ([5]; female, read-out: concentration in pooled plasma, female EHBRs): 7 µM; concentration at 12 h ([5]; male, read-out: concentration in pooled plasma, male EHBRs): 3.2 µM; IC50 [6]: 41 to 74 µM; IC50 [7]: 33 to 43 µM
O=C1C[C@@H](c2ccc(O[C@@H]3O[C@H](CO)[C@@H](O)[C@H](O)[C@H]3O)cc2)Oc2cc(O)ccc21 [liquiritin]	less than 0.02%	–
